Experimental data published in patent US11814367B2, “Inhibitors of glycogen synthase 1 (GYS1) and methods of use thereof” (Maze Therapeutics, Inc., priority 2021, dated 2023).
pIC50: −log10 of the molar value.

How the values were obtained:
[1] = target: hGYS2 enzyme (recombinant hGYS2/GN1 protein) (Homo sapiens (Human), UniProt P54840); assay: GYS2 coupled enzyme assay (PK/LDH); type: biochemical; conditions: geometric mean of at least 2 assay runs on separate days, read-out: Avg_IC50
Text: The GYS2 coupled enzyme assay is a kinetic biochemical assay that indirectly quantifies the rate of glycogen synthesis by coupling the conversion of GYS2 substrate UDP-glucose into UDP with downstream enzymatic reactions. UDP is released from UDP-glucose as glucose monomers are linked into the growing glycogen strand by GYS2. The coupled assay then proceeds with pyruvate kinase utilizing UDP and phospho(enol)pyruvate (PEP) to form pyruvate. Lactate dehydrogenase then converts pyruvate and NADH into lactate and NAD+. Oxidation of NADH to NAD+ can be measured continuously with a plate reader by quantifying the decrease in NADH absorbance at 340 nm over time.
Compounds that inhibit the hGYS2 enzyme and, subsequently, the downstream conversion of NADH to NAD+, were tested using assay ready plates (black, clear bottom 384 well plates) in a final DMSO reaction volume of 2.5% DMSO. The Assay Buffer contained 50 mM Tris pH 7.5, 2 mM MgCl2, and 100 mM KCl. Fresh stocks of BSA at a final concentration of 0.02% and TCEP 1 mM were added before splitting buffer into hGYS2 buffer and substrate buffer. To the hGYS2 buffer, rabbit liver glycogen was added at a final concentration of 0.2% glycogen. Glucose-6-Phosphate was added at 2 mM, recombinant hGYS2/GN1 protein was added at 200 nM to the substrate buffer, phosphoenolpyruvate (PEP) was added at 2 mM, UDP-Glucose was added at 2 mM, NADH was added at 0.6 mM, and Pyruvate Kinase/Lactate Dehydrogenase was added at 20 units/mL. The reaction was initiated by mixing hGYS2 buffer and substrate buffer at a 1:1 ratio. Both buffers were plated using a liquid dispensing device with hGYS2 buffer plated first followed by the substrate buffer. Plates were spun briefly to eliminate air bubbles and are immediately read in continuous mode at an absorbance of 340 nm, for 10 time points in one-minute increments, for a total of 10 minutes. The slope from these 10 time points was normalized to the positive and negative control wells. The duplicate % inhibition values are then averaged and fit to a Hill equation for dose response according to the Levenberg-Marquardt algorithm with the Hill equation maximum set to 100 and the minimum set to 0.
The results are shown in Table 4 below, which reports the IC50 of each compound. Unless otherwise specified, IC50 values are reported as the geometric mean of at least 2 assay runs on separate days. As shown in the table below, the compounds of the present invention are not potent inhibitors of human GYS2. Unless otherwise specified, IC50 values are reported as the geometric mean of at least two assay runs on separate days. Each run represents the average of a technical replicate, where each compound was assayed twice in the same plate. A superscript “#” symbol in Table 4 indicates results from a single assay run.

[2] = target: hGYS1 enzyme (recombinant hGYS1/GN1 protein) (Homo sapiens (Human), UniProt P13807); assay: GYS1 coupled enzyme assay (PK/LDH); type: biochemical; conditions: hGYS1/GN1 50 nM, UDP-Glucose 0.8 mM, G6P 1 mM; geometric mean of at least 2 runs
Chain of hGYS1 enzyme (recombinant hGYS1/GN1 protein) (P13807 whole entry): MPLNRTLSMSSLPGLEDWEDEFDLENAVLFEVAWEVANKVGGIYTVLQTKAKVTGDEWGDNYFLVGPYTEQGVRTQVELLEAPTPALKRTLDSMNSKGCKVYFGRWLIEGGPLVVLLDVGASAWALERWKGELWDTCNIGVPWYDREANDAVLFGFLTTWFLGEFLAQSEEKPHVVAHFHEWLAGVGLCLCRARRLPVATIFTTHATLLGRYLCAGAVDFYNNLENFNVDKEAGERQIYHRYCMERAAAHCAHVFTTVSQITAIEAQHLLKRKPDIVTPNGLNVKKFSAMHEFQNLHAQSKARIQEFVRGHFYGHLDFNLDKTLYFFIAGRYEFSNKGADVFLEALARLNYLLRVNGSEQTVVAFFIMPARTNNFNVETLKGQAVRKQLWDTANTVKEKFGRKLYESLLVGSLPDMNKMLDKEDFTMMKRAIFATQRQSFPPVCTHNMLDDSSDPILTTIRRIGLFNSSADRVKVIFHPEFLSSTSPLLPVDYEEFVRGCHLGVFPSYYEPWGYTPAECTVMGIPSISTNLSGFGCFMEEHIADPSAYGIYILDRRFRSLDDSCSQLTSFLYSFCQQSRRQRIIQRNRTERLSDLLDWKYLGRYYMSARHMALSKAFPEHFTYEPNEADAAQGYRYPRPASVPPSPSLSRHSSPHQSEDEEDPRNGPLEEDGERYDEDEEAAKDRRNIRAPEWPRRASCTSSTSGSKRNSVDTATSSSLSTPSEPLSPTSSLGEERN
Chain of hGYS1 enzyme (recombinant hGYS1/GN1 protein) (P46976 whole entry partner): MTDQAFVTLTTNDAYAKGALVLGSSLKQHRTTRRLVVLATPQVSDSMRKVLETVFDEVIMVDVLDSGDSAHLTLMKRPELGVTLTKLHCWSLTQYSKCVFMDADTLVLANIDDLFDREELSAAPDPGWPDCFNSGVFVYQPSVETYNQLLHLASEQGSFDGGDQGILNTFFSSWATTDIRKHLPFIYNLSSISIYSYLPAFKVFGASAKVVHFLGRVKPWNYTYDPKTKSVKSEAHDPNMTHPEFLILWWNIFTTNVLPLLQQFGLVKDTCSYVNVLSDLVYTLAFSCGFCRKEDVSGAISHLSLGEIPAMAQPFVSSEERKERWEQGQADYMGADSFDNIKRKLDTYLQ

Chain of hGYS2 enzyme (recombinant hGYS2/GN1 protein) (P54840 whole entry): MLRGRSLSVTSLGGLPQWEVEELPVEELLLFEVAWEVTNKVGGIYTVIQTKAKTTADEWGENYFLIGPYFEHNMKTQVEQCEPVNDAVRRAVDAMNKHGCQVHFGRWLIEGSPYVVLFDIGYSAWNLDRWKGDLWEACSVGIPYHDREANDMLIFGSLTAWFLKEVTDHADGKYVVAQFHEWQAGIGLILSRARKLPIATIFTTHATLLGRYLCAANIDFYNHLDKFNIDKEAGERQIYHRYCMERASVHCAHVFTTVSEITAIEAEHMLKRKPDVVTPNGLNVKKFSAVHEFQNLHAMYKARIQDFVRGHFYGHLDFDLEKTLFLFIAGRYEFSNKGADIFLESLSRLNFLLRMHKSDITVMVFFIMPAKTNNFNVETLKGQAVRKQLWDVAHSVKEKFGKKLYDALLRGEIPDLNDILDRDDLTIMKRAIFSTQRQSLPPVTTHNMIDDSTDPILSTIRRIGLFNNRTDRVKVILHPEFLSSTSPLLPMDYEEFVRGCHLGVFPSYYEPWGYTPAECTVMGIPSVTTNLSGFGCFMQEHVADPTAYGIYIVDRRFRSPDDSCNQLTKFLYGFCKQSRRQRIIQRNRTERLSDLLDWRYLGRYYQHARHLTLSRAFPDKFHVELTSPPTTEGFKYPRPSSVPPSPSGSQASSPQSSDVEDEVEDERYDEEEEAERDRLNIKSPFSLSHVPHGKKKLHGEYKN
Chain of hGYS2 enzyme (recombinant hGYS2/GN1 protein) (P46976 whole entry partner): as the sequence (P46976 whole entry partner) above

| SMILES | pIC50 [1] | pIC50 [2] |
| --- | --- | --- |
| Cc1nc(CC(=O)N2C[C@H](F)C[C@H]2C(=O)N[C@@H](c2ccccc2)c2ccc(C(C)C)cc2)no1 [Compound 29, (2S,4R)-4-fluoro-1-[2-(5-methyl-1,2,4-oxadiazol-3-yl)acetyl]-N-[(S)-phenyl[4-(propan-2-yl)phenyl]methyl]pyrrolidine-2-carboxamide] | < 4.00 | 7.15 |
| Cc1noc(CC(=O)N2C[C@H](F)C[C@H]2C(=O)N[C@@H](c2ccccc2)c2ccc(C(C)C)cc2)n1 [Compound 31, (2S,4R)-4-fluoro-1-[2-(3-methyl-1,2,4-oxadiazol-5-yl)acetyl]-N-[(S)-phenyl[4-(propan-2-yl)phenyl]methyl]pyrrolidine-2-carboxamide] | < 4.00 | 7.32 |
| CC(C)c1ccc([C@@H](NC(=O)[C@@H]2C[C@@H](F)CN2C(=O)C(C)n2ccnn2)c2ccccc2)cc1 (stereo partly drawn) [Compound 33, (2S,4R)-4-fluoro-N-[(S)-phenyl[4-(propan-2-yl)phenyl]methyl]-1-[2-(1H-1,2,3-triazol-1-yl)propanoyl]pyrrolidine-2-carboxamide] | < 4.00 | 6.97 |
| CC(C)c1ccc([C@@H](NC(=O)[C@@H]2C[C@@H](F)CN2C(=O)Cc2cccnc2)c2ccccc2)cc1 [Compound 38, (2S,4R)-4-fluoro-N-[(S)-phenyl[4-(propan-2-yl)phenyl]methyl]-1-[2-(pyridin-3-yl)acetyl]pyrrolidine-2-carboxamide] | < 4.00 | 7.29 |
| Cc1ncc(CC(=O)N2C[C@H](F)C[C@H]2C(=O)N[C@@H](c2ccccc2)c2ccc(C(C)C)cc2)s1 [Compound 41, (2S,4R)-4-fluoro-1-[2-(2-methyl-1,3-thiazol-5-yl)acetyl]-N-[(S)-phenyl[4-(propan-2-yl)phenyl]methyl]pyrrolidine-2-carboxamide] | < 4.00 | 7.51 |
| CC(C)c1ccc([C@@H](NC(=O)[C@@H]2C[C@@H](F)CN2C(=O)COc2cccnc2)c2ccccc2)cc1 [Compound 48, (2S,4R)-4-fluoro-N-[(S)-phenyl[4-(propan-2-yl)phenyl]methyl]-1-[2-(pyridin-3-yloxy)acetyl]pyrrolidine-2-carboxamide] | < 4.00 | 7.36 |
| CC(C)c1ccc([C@@H](NC(=O)[C@@H]2C[C@@H](F)CN2C(=O)Cc2cnn(C)c2)c2ccccc2)cc1 [Compound 50, (2S,4R)-4-fluoro-1-[2-(1-methyl-1H-pyrazol-4-yl)acetyl]-N-[(S)-phenyl[4-(propan-2-yl)phenyl]methyl]pyrrolidine-2-carboxamide] | < 4.00 | 7.77 |
| Cc1nc(CC(=O)N2C[C@H](F)C[C@H]2C(=O)N[C@@H](c2ccccc2)c2ccc(C(C)C)cc2)cs1 [Compound 52, (2S,4R)-4-fluoro-1-[2-(2-methyl-1,3-thiazol-4-yl)acetyl]-N-[(S)-phenyl[4-(propan-2-yl)phenyl]methyl]pyrrolidine-2-carboxamide] | < 4.00 | 7.43 |
| Cc1cnn(CC(=O)N2C[C@H](F)C[C@H]2C(=O)N[C@@H](c2ccccc2)c2ccc(C(C)C)cc2)c1 [Compound 56, (2S,4R)-4-fluoro-1-[2-(4-methyl-1H-pyrazol-1-yl)acetyl]-N-[(S)-phenyl[4-(propan-2-yl)phenyl]methyl]pyrrolidine-2-carboxamide] | < 4.00 | 7.39 |
| CC(C)c1ccc([C@@H](NC(=O)[C@@H]2C[C@@H](F)CN2C(=O)[C@@H]2CCC(=O)N2C)c2ccccc2)cc1 [Compound 57, (2S,4R)-4-fluoro-1-[(2S)-1-methyl-5-oxopyrrolidine-2-carbonyl]-N-[(S)-phenyl[4-(propan-2-yl)phenyl]methyl]pyrrolidine-2-carboxamide] | < 4.00 | 6.64 |

Continued, values first:

| pIC50 [1] | pIC50 [2] | SMILES |
| --- | --- | --- |
| < 4.00 | 7.64 | CC(C)c1ccc([C@@H](NC(=O)[C@@H]2C[C@@H](F)CN2C(=O)Cc2cncnc2)c2ccccc2)cc1 [Compound 27, (2S,4R)-4-fluoro-N-[(S)-phenyl[4-(propan-2-yl)phenyl]methyl]-1-[2-(pyrimidin-5-yl)acetyl]pyrrolidine-2-carboxamide] |
| < 4.00 | 7.64 | CC(C)c1ccc([C@@H](NC(=O)[C@@H]2C[C@@H](F)CN2C(=O)Cn2ccncc2=O)c2ccccc2)cc1 [Compound 32, (2S,4R)-4-fluoro-1-[2-(2-oxo-1,2-dihydropyrazin-1-yl)acetyl]-N-[(S)-phenyl[4-(propan-2-yl)phenyl]methyl]pyrrolidine-2-carboxamide] |
| < 4.00 | 7.12 | CC(C)c1ccc([C@@H](NC(=O)[C@@H]2C[C@@H](F)CN2C(=O)C(C)n2cncn2)c2ccccc2)cc1 (stereo partly drawn) [Compound 34, (2S,4R)-4-fluoro-N-[(S)-phenyl[4-(propan-2-yl)phenyl]methyl]-1-[2-(1H-1,2,4-triazol-1-yl)propanoyl]pyrrolidine-2-carboxamide] |
| < 4.00 | 6.73 | CC(C)c1ccc([C@@H](NC(=O)[C@@H]2C[C@@H](F)CN2C(=O)CCn2cncn2)c2ccccc2)cc1 [Compound 35, (2S,4R)-4-fluoro-N-[(S)-phenyl[4-(propan-2-yl)phenyl]methyl]-1-[3-(1H-1,2,4-triazol-1-yl)propanoyl]pyrrolidine-2-carboxamide] |
| < 4.00 | 7.14 | CC(C)c1ccc([C@@H](NC(=O)[C@@H]2C[C@@H](F)CN2C(=O)Cc2ccc(F)cn2)c2ccccc2)cc1 [Compound 36, (2S,4R)-4-fluoro-1-[2-(5-fluoropyridin-2-yl)acetyl]-N-[(S)-phenyl[4-(propan-2-yl)phenyl]methyl]pyrrolidine-2-carboxamide] |
| < 4.00 | 7.35 | CC(C)c1ccc([C@@H](NC(=O)[C@@H]2C[C@@H](F)CN2C(=O)Cc2ccccn2)c2ccccc2)cc1 [Compound 37, (2S,4R)-4-fluoro-N-[(S)-phenyl[4-(propan-2-yl)phenyl]methyl]-1-[2-(pyridin-2-yl)acetyl]pyrrolidine-2-carboxamide] |
| < 4.00 | 7.59 | Cc1cc(CC(=O)N2C[C@H](F)C[C@H]2C(=O)N[C@@H](c2ccccc2)c2ccc(C(C)C)cc2)on1 [Compound 40, (2S,4R)-4-fluoro-1-[2-(3-methyl-1,2-oxazol-5-yl)acetyl]-N-[(S)-phenyl[4-(propan-2-yl)phenyl]methyl]pyrrolidine-2-carboxamide] |
| < 4.00 | 6.97 | CC(C)c1ccc([C@@H](NC(=O)[C@@H]2C[C@@H](F)CN2C(=O)C(C)n2ccnc2)c2ccccc2)cc1 (stereo partly drawn) [Compound 44, (2S,4R)-4-fluoro-1-[2-(1H-imidazol-1-yl)propanoyl]-N-[(S)-phenyl[4-(propan-2-yl)phenyl]methyl]pyrrolidine-2-carboxamide] |
| < 4.00 | 6.87 | CC(C)c1ccc([C@@H](NC(=O)[C@@H]2C[C@@H](F)CN2C(=O)CCc2cn[nH]c2)c2ccccc2)cc1 [Compound 46, (2S,4R)-4-fluoro-N-[(S)-phenyl[4-(propan-2-yl)phenyl]methyl]-1-[3-(1H-pyrazol-4-yl)propanoyl]pyrrolidine-2-carboxamide] |
| < 4.00 | 7.72 | CC(C)c1ccc([C@@H](NC(=O)[C@@H]2C[C@@H](F)CN2C(=O)Cn2ccccc2=O)c2ccccc2)cc1 [Compound 51, (2S,4R)-4-fluoro-1-[2-(2-oxo-1,2-dihydropyridin-1-yl)acetyl]-N-[(S)-phenyl[4-(propan-2-yl)phenyl]methyl]pyrrolidine-2-carboxamide] |
| < 4.00 | 7.37 | Cc1ccn(CC(=O)N2C[C@H](F)C[C@H]2C(=O)N[C@@H](c2ccccc2)c2ccc(C(C)C)cc2)n1 [Compound 55, (2S,4R)-4-fluoro-1-[2-(3-methyl-1H-pyrazol-1-yl)acetyl]-N-[(S)-phenyl[4-(propan-2-yl)phenyl]methyl]pyrrolidine-2-carboxamide] |
| < 4.00 | 6.84 | CC(C)c1ccc([C@@H](NC(=O)[C@@H]2C[C@@H](F)CN2C(=O)C2CCC(=O)NC2)c2ccccc2)cc1 (stereo partly drawn) [Compound 58, (2S,4R)-4-fluoro-1-(6-oxopiperidine-3-carbonyl)-N-[(S)-phenyl[4-(propan-2-yl)phenyl]methyl]pyrrolidine-2-carboxamide] |
